Our source for the IC50 and inhibition values is ChEMBL document CHEMBL1909585 (Bioorg Med Chem Lett, 2011).

The target in experiment [1] is T1, Tyrosinase (Agaricus bisporus, UniProt O42713).
T1 sequence (O42713 whole entry): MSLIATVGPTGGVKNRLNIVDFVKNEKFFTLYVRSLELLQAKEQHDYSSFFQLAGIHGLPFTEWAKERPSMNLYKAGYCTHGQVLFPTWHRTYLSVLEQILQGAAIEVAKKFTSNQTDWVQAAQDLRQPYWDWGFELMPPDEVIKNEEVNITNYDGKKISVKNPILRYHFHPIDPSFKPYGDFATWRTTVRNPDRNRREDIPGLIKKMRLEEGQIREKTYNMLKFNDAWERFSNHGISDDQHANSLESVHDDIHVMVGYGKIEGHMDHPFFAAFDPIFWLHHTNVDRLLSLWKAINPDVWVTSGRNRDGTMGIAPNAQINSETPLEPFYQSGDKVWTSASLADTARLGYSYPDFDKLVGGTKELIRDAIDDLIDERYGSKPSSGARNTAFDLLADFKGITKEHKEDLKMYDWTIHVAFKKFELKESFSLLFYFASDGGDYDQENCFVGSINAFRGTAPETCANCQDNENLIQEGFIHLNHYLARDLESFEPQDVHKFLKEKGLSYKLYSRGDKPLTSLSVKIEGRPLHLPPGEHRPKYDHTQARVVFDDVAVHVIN
Description: Inhibition of mushroom tyrosinase activity using L-tyrosine as substrate by spectrometric analysis

Experiment [2] has as its system B16. As to the kind of experiment: cells. Conditions: Mus musculus, B16, 72 h.
Description: Inhibition of alpha-MSH -stimulated melanogenesis in mouse B16 cells assessed as melanin release after 72 hrs by spectrometric analysis
Experiment [3] has as its system B16. As to the kind of experiment: cells. Conditions: Mus musculus, B16, 72 h, read-out: INH.
Description: Inhibition of alpha-MSH -stimulated melanogenesis in mouse B16 cells assessed as melanin release at 10 uM after 72 hrs by spectrometric analysis

Broadly, the IC50 is the point on the concentration scale where inhibition reaches its midpoint. A low value points to higher potency. In experiment [1], `CCc1ccccc1NC(N)=S` registered an IC50 of 27.1 µM.

`NC(=S)NCc1ccccc1` gave an IC50 in experiment [1] of 25.4 µM.

On to `NC(=S)NCCc1ccccc1`, for which the concentration for half-maximal inhibition (IC50) in experiment [1] is > 100 µM.

`NC(=S)NCCCc1ccccc1` returned an IC50 in experiment [1] of 64.8 µM.

In the case of `Cc1ccc(NC(N)=S)cc1`, the IC50 in experiment [1] was found to be 1.4 µM.

For `CCc1ccc(NC(N)=S)cc1`, in experiment [1], inhibition was half-maximal at 0.8 µM (IC50). This IC50 lies about 1.7-fold lower than the previous one.

Molecule `CC(C)(C)c1ccc(NC(N)=S)cc1` showed an IC50 in experiment [1] of 1.7 µM. Against the preceding molecule, the IC50 is about 2.1-fold higher.

As to `Cc1cccc(NC(N)=S)c1`, the IC50 in experiment [1] worked out at 0.6 µM.

Molecule `Cc1ccccc1NC(N)=S` returned an IC50 in experiment [1] of 0.84 µM.

Regarding `CC(C)(C)c1ccccc1NC(N)=S`, the IC50 in experiment [1] is > 100 µM.

Turning to `S=C1NCc2ccccc2N1`, the IC50 in experiment [1] is > 100 µM.

As for `S=C(NCCc1ccccc1)Nc1ccccc1`, the IC50 in experiment [1] was > 100 µM; in experiment [2] it was 2.2 µM. Moreover, the inhibition at 10 µM in experiment [3] was > 100%.

In the case of `S=C(NCCCc1ccccc1)Nc1ccccc1`, the figures for the IC50 in experiment [1] and in experiment [2] were > 100 µM and 1.8 µM, respectively. In addition, in experiment [3], the inhibition at 10 µM is > 100%.

For `COc1ccc(NC(S)=Nc2ccccc2)cc1`, the IC50 in experiment [1] is > 100 µM; in experiment [2], 8.2 µM. In addition, in experiment [3], the inhibition at 10 µM was found to be 59%.

With `CNC(=S)Nc1ccccc1`, the IC50 in experiment [1] was > 100 µM; in experiment [2] it was 35 µM. The inhibition at 10 µM in experiment [3] was determined as 30%.

For the molecule `Cc1ccc(NC(=S)Nc2ccccc2)cc1`, the IC50 in experiment [1] was > 100 µM; in experiment [2] it was 6.3 µM. The inhibition at 10 µM in experiment [3] came to 79%.

On to `S=C(Nc1ccccc1)Nc1ccc(Cl)cc1`, for which the figures for the IC50 in experiment [1] and in experiment [2] were > 100 µM and 3.4 µM, respectively. The inhibition at 10 µM in experiment [3] was > 100%.

On to `S=C(Nc1ccccc1)NC1CCCCC1`, for which the IC50 was > 100 µM in experiment [1] and 2.4 µM in experiment [2]. Further, in experiment [3], the inhibition at 10 µM is > 100%.

Turning to `S=C(NCc1ccccc1)Nc1ccccc1`, the IC50 in experiment [1] was > 100 µM; in experiment [2] it was 4.7 µM. For the same molecule, the inhibition at 10 µM in experiment [3] amounted to 91%.

Turning to `CC(C)N(C(=S)Nc1ccccc1)C(C)C`, the figures for the IC50 in experiment [1] and in experiment [2] were > 100 µM and 19.6 µM, respectively. Further, in experiment [3], the inhibition at 10 µM was 30%.

Consider `Oc1ccc(N/C(S)=N/c2ccccc2)cc1`, for which the figures for the half-maximal inhibitory concentration (IC50) in experiment [1] and in experiment [2] were > 100 µM and 20.7 µM, respectively. Further, the inhibition at 10 µM in experiment [3] turned out to be 24%.

With `Cc1ccc2c(c1)CN(CCc1ccccc1)C(=S)N2`, in experiment [1], the 50% inhibitory concentration (IC50) is > 100 µM.
